# Assay results as given in US8889878B2, “Haloalky-substituted amides as insecticides and acaricides” (Bayer CropScience AG, priority 2009, dated 2014).
# Experiments:
# Boophilus microplus = Boophilus microplus test (BOOPMI injection), Example 11; format: in vivo; details: application rate 20 μg/animal, injected into abdomen, after 7 days
# Description: Boophilus microplus Test (BOOPMI Injection) • Solvent: dimethyl sulphoxide To prepare an appropriate active ingredient formulation, 10 mg of active ingredient are mixed with 0.5 ml of solvent and the concentrate is diluted with solvent to the desired concentration. The active ingredient solution is injected into the abdomen (Boophilus microplus), and the animals are transferred to dishes and stored in a climate-controlled room. The efficacy was assessed by the number of fertile eggs laid. After 7 days, the efficacy in % is determined. 100% means that none of the ticks has laid any fertile eggs.
# [1] = logP by HPLC on reverse-phase column (EEC Directive 79/831 Annex V.A8); format: physicochemical
# Description: The logP values reported in the above Tables and Preparation Examples were determined according to EEC Directive 79/831 Annex V.A8 by HPLC (High Performance Liquid Chromatography) on a reverse-phase column (C18). Temperature 43° C.
# [2] = tested on: mustard beetle (Phaedon cochleariae); test: Phaedon test (PHAECO spray treatment), Example 7; format: in vivo; details: application rate 20 g/ha, china cabbage leaf discs sprayed, after 7 days
# Description: Phaedon Test (PHAECO Spray Treatment)
# (§1) • Solvent: 78.0 parts by weight of acetone • 1.5 parts by weight of dimethylformamide • Emulsifier: 0.5 part by weight of alkylaryl polyglycol ether
# To prepare an active ingredient formulation, 1 part by weight of active ingredient is mixed with the stated amounts of solvent and emulsifier, and the concentrate is diluted with emulsifier-containing water to the desired concentration. Leaf discs from china cabbage (Brassica pekinensis) are sprayed with an active ingredient formulation of the desired concentration and, after drying, populated with larvae of the mustard beetle (Phaedon cochleariae).
# After 7 days, the efficacy in % is determined. 100% means that all beetle larvae were killed; 0% means that no beetle larvae were killed.
# [3] = tested on: armyworm (Spodoptera frugiperda); test: Spodoptera frugiperda test (SPODFR spray treatment), Example 15; format: in vivo; details: maize leaf discs sprayed, after 7 days
# Description: Spodoptera frugiperda Test (SPODFR Spray Treatment)
# as §1
# To prepare an appropriate active ingredient formulation, 1 part by weight of active ingredient is mixed with the stated amounts of solvent and emulsifier, and the concentrate is diluted with emulsifier-containing water to the desired concentration. Leaf discs from maize (Zea mays) are sprayed with an active ingredient formulation of the desired concentration and, after drying, populated with caterpillars of the armyworm (Spodoptera frugiperda).
# After 7 days, the efficacy in % is determined. 100% means that all caterpillars were killed; 0% means that no caterpillars were killed.
# [4] = HPLC, C18 reverse phase, 43° C., acidic range pH 2.7, calibration with alkan-2-ones
# [5] = HPLC-MS, HPLC on reverse-phase column
Structure (SMILES),efficacy in % (fertile eggs laid) (Boophilus microplus),logP ([1]; HPLC-MS),efficacy in % ([3]; application rate 100 g/ha),also measured
CCC(C)NC(=O)c1ccc(/C=C/C(=O)NC(c2cccc(C(F)(F)F)c2)C(F)(F)F)cc1C(F)(F)F (stereo not drawn) [Ia-144],100%,HPLC-MS: logP = 3.84; mass,,
O=C(NC(c1ccc(Cl)c(Cl)c1)C(F)(F)F)c1cc2cc(Cl)c(C(=O)NC3CC3)cc2[nH]1 (stereo not drawn) [Ic-21],,,,"efficacy in % [2]: 100%; logP [1, 4]: HPLC-MS: logP = 3.28; mass"
O=C(/C=C/c1ccc(C(=O)NCc2nccs2)c(Cl)c1)NC(c1cccc(C(F)(F)F)c1)C(F)(F)F (stereo not drawn) [Ia-159],100%,HPLC-MS: logP = 3.13; mass,,
O=C(/C=C/c1ccc(C(=O)Nc2ccncn2)c(C(F)(F)F)c1)NC(c1cccc(C(F)(F)F)c1)C(F)(F)F (stereo not drawn) [Ia-125],100%,HPLC-MS: logP = 3.35; mass,100%,
Cc1cc(/C=C/C(=O)NC(c2cccc(C(F)(F)F)c2)C(F)(F)F)ccc1C(=O)NCc1ccc(F)cn1 (stereo not drawn) [Ia-87],,HPLC-MS: logP = 3.13 mass,,efficacy in % [2]: 100%
O=C(NC(c1cc(Cl)cc(C(F)(F)F)c1)C(F)(F)F)c1cc2cc(Cl)c(C(=O)NC3CC3)cc2[nH]1 (stereo not drawn) [Ic-20],,,,"efficacy in % [2]: 100%; logP [1, 4]: HPLC-MS: logP = 3.47; mass"
O=C(NC(c1cc(Cl)cc(Cl)c1)C(F)(F)F)c1cc2ccc(C(=O)NC3CC3)c(Cl)c2[nH]1 (racemic) [Ic-22],,,,"efficacy in % [2]: 100%; logP [1, 4]: HPLC-MS: logP = 3.42; mass"
Cn1ccc(NC(=O)c2ccc(/C=C/C(=O)NC(c3cccc(C(F)(F)F)c3)C(F)(F)F)cc2C(F)(F)F)n1 (stereo not drawn) [Ia-124],100%,HPLC-MS: logP = 3.28; mass,100%,
NC(=O)c1ccc(/C=C/C(=O)NC(c2cccc(C(F)(F)F)c2)C(F)(F)F)cc1Cl (stereo not drawn) [Ia-157],100%,HPLC-MS: logP = 2.75; mass,,
O=C(/C=C/c1ccc(C(=O)NCC=CCl)c(C(F)(F)F)c1)NC(c1cccc(C(F)(F)F)c1)C(F)(F)F (stereo not drawn) [Ia-145],100%,HPLC-MS: logP = 3.69; mass,,
O=C(/C=C/c1ccc(-n2cccn2)c(C(F)(F)F)c1)NC(c1cccc(C(F)(F)F)c1)C(F)(F)F (stereo not drawn) [Ia-135],100%,HPLC-MS: logP = 3.95; mass,,
CCOC1(NC(=O)c2ccc(/C=C/C(=O)NC(c3cccc(C(F)(F)F)c3)C(F)(F)F)cc2Br)CC1 (stereo not drawn) [Ia-237],100%,HPLC-MS: logP = 3.42; mass,,
O=C(/C=C/c1ccc(C(=O)Nc2ncc(Cl)cn2)c(C(F)(F)F)c1)NC(c1cccc(C(F)(F)F)c1)C(F)(F)F (stereo not drawn) [Ia-137],,HPLC-MS: logP = 3.62; mass,100%,
CCC(=O)NCc1ccc(/C=C/C(=O)NC(c2ccc(F)c(C(F)(F)F)c2)C(F)(F)F)cc1C(F)(F)F (stereo not drawn) [Ia-272],,,100%,"logP [1, 5]: HPLC-MS: logP = 3.61; mass"
O=C(/C=C/c1ccc(C(=O)NCc2cc(Cl)ccn2)c(C(F)(F)F)c1)NC(c1cccc(C(F)(F)F)c1)C(F)(F)F (stereo not drawn) [Ia-126],100%,HPLC-MS: logP = 3.68; mass,,
N#Cc1ccc2[nH]c(C(=O)NC(c3cccc(C(F)(F)F)c3)C(F)(F)F)cc2c1 (stereo not drawn) [Ic-4],,,,"efficacy in % ([3]; application rate 500 g/ha): 83%; logP [1, 4]: HPLC-MS: logP = 3.48; mass"
CC(=O)NCc1ccc(/C=C/C(=O)NC(c2cccc(C(F)(F)F)c2)C(F)(F)F)cc1Cl (stereo not drawn) [Ia-248],,HPLC-MS: logP = 3.06; mass,100%,
N#Cc1ccc(NC(=O)c2ccc(/C=C/C(=O)NC(c3cccc(C(F)(F)F)c3)C(F)(F)F)cc2Br)nc1 (racemic) [Ia-214],,HPLC-MS: logP = 3.75; mass,100%,

Structure (SMILES),efficacy in % (fertile eggs laid) (Boophilus microplus),logP ([1]; HPLC-MS),efficacy in % ([3]; application rate 100 g/ha),also measured
O=C(/C=C/c1ccc(C(=O)Nc2cc(Cl)ccn2)c(C(F)(F)F)c1)NC(c1cccc(C(F)(F)F)c1)C(F)(F)F (stereo not drawn) [Ia-121],100%,HPLC-MS: logP = 4.3; mass,,
O=C(/C=C/c1ccc(C(=O)NC2CC2)c(C(F)(F)F)c1)NC(c1cccc(Br)c1)C(F)(F)F (stereo not drawn) [Ia-284],,,100%,"logP [1, 5]: HPLC-MS: logP = 3.35; mass"
O=C(/C=C/c1ccc(C(=O)Nc2ncccc2Cl)c(Cl)c1)NC(c1cccc(C(F)(F)F)c1)C(F)(F)F (stereo not drawn) [Ia-183],,HPLC-MS: logP = 3.44; mass,83%,
CC(NC(=O)c1ccc(/C=C/C(=O)NC(c2cccc(C(F)(F)F)c2)C(F)(F)F)cc1Br)C(F)(F)F (stereo not drawn) [Ia-176],,HPLC-MS: logP = 3.78; mass,100%,
N#Cc1ccc(NC(=O)c2ccc(/C=C/C(=O)NC(c3cccc(C(F)(F)F)c3)C(F)(F)F)cc2C(F)(F)F)nc1 (racemic) [Ia-211],,HPLC-MS: logP = 3.82; mass,100%,
CCC(=O)NC(C)c1ccc(/C=C/C(=O)NC(c2cccc(C(F)(F)F)c2)C(F)(F)F)cc1F (stereo not drawn) [Ia-273],,,100%,"logP [1, 5]: HPLC-MS: logP = 3.3; mass"
N#CCNC(=O)c1ccc(/C=C/C(=O)NC(c2cccc(C(F)(F)F)c2)C(F)(F)F)cc1C(F)(F)F (stereo not drawn) [Ia-129],100%,HPLC-MS: logP = 3.19; mass,100%,
O=C(/C=C/c1ccc(C(=O)N(Cc2cccnc2)C2CC2)c(C(F)(F)F)c1)NC(c1cccc(C(F)(F)F)c1)C(F)(F)F (stereo not drawn) [Ia-258],,HPLC-MS: logP = 2.8; mass,100%,
C#CC(C)(C)NC(=O)c1ccc(/C=C/C(=O)NC(c2cccc(C(F)(F)F)c2)C(F)(F)F)cc1Cl (racemic) [Ia-196],,HPLC-MS: logP = 3.64; mass,83%,
O=C(/C=C/c1ccc(C(=O)Nc2cccnn2)c(C(F)(F)F)c1)NC(c1cccc(C(F)(F)F)c1)C(F)(F)F (stereo not drawn) [Ia-225],,HPLC-MS: logP = 3.27; mass,100%,
O=C(/C=C/c1ccc(C(=O)Nc2cnc(Br)cn2)c(C(F)(F)F)c1)NC(c1cccc(C(F)(F)F)c1)C(F)(F)F (stereo not drawn) [Ia-226],,HPLC-MS: logP = 4.15; mass,100%,
O=C(/C=C/c1ccc(C(=O)Nc2cc(Cl)ccn2)c(Cl)c1)NC(c1cccc(C(F)(F)F)c1)C(F)(F)F (stereo not drawn) [Ia-165],,"HPLC-MS: logP = 4,23; mass",100%,
O=C(/C=C/c1ccc(C(=O)Nc2ccc(F)cn2)c(Br)c1)NC(c1cccc(C(F)(F)F)c1)C(F)(F)F (racemic) [Ia-212],,HPLC-MS: logP = 3.87; mass,100%,
O=C(/C=C/c1ccc(CNc2cc(Cl)ccn2)c(C(F)(F)F)c1)NC(c1cccc(C(F)(F)F)c1)C(F)(F)F (stereo not drawn) [Ia-264],,,100%,"logP [1, 5]: HPLC-MS: logP = 4.28; mass"
CCOCn1c(C(=O)NC(c2cccc(C(F)(F)F)c2)C(F)(F)F)cc2cc(C(=O)NC3CC3)c(Cl)cc21 (racemic) [Ic-27],,,100%,"logP [1, 4]: HPLC-MS: logP = 3.81; mass"
CN(C(=O)c1ccc(/C=C/C(=O)NC(c2ccc(F)c(C(F)(F)F)c2)C(F)(F)F)cc1C(F)(F)F)c1ccccn1 (stereo not drawn) [Ia-281],,,100%,"logP [1, 5]: HPLC-MS: logP = 3.63; mass"
O=C(/C=C/c1ccc(C(=O)Nc2ccccn2)c(C(F)(F)F)c1)NC(c1cncc(C(F)(F)F)c1)C(F)(F)F (stereo not drawn) [Ib-2],,,,"efficacy in % ([3]; application rate 500 g/ha): 83%; logP [1, 4]: HPLC-MS: logP = 3.02 mass (m/z):"
O=C(/C=C/c1ccc2c(c1)CCC2NC(=O)CC1CC1)NC(c1cccc(C(F)(F)F)c1)C(F)(F)F (stereo not drawn) [Ie-2],,,100%,"logP [1, 4]: HPLC-MS: logP = 3.54; mass"
